The subject of assay [1] is Wistar rats. The experiment in a line: elevated plus maze test 24 hours after ethanol narcosis. The class given is in vivo, rat. The following applies: 250 nM SkQ1 group; p<0.05. As for the experimental part: FIG. 8 is a graphic representation showing behavior parameters in the elevated plus maze test 24 hours after ethanol narcosis in % to negative control. (*−p<0.05 to intact control);
In these experiments, 6 groups of experimental animals (Wistar rats) were used. (1) The Intact Control group (n=12), had no ethanol narcosis, and were orally administered a normal isotonic 0.9% NaCl solution; (2) the Negative Control group (n=12) was orally administered a normal physiological solution after ethanol narcosis; (3) The SkQ1 50 nM control group (n=12) was orally administered SkQ1 in a concentration 50 nM after ethanol narcosis; (4) The SkQ1 250 nM control group (n=12) was orally administered SkQ1 in a concentration of 250 nM after ethanol narcosis; (5) The SkQ1 1250 nM control group (n=12) was orally administered SkQ1 in a concentration of 1250 nM after ethanol narcosis; (6) the SkQ1 1250 nM intr control group (n=13) was intraperitoneally administered SkQ1 in a concentration of 1250 nM after ethanol narcosis.
Twenty-four hours after ethanol narcosis, elevated plus maze (Treit et al. (1993) Pharmacol. Biochem. Behav. 44:463-9) and Porsolt forced swimming (Petit-Demouliere et al. (2005) Psychopharmacol. (Berl). 177: 245-55) tests were performed. […]

For assay [2], the system named is Wistar rats. The assay can be described thus: elevated plus maze, age-dependent behavioral defects. The class given is in vivo, rat. The following applies: 14-month-old rats. The text has this: Rats of 3 months and 14 months old were investigated. An elevated plus maze with two open and two closed arms was used. Young animals placed in the maze center entered both types of arms with equal probability (FIGS. 2A and 2C). However, the 14-month-old rats preferred to enter the closed arms only (FIG. 2D), the probability of entering the open arms being extremely low. If, nevertheless, a 14-month-old rat entered an open arm, the animal immediately left this arm (FIG. 2B). […] This difference was also abolished by SkQ1 (Stefanova, et al., J. Alzheimer's Dis. 21:479-491 (2010)).

The test system of assay [3] is chronically alcoholised rats. The assay can be described thus: Porsolt forced swimming test of chronically alcoholised rats. The assay is classed as in vivo, rat. The settings on record: SkQ1 250 nM solution orally every two days for 20 days; p<0.05. As for the experimental part:
FIG. 11 is a graphic representation showing behavior parameters in the Porsolt forced swimming test of chronically alcoholised rats in % to intact control. (*−p<0.05 SKQ-1 to negative control); and
Male albino rats had free access to a 15% ethanol solution, as well as to food and water. After 6 months of alcoholisation, animals with average consumption more than 11 ml of 15% ethanol solution were divided into two even groups and subjected to the following treatment. The Negative Control group (n=16) (chronically alcoholised rats) were orally administered 1 ml per kg of isotonic 0.9% NaCl solution every two days for 20 days during alcohol deprivation. The SkQ1 group (n=17) (chronically alcoholised rats) were orally administered 1 ml per kg of SkQ1 250 nM solution every two days for 20 days during alcohol deprivation. The Intact Control group (n=10) (animals had no previous contact with ethanol) were orally administered 1 ml per kg of normal physiological solution every two days for 20 days.
After this course of drug administration, the effect on behavioral parameters was observed using the open field test, the elevated plus maze test, and the Porsolt forced swimming test.

In assay [4] the test system is Wistar rats. The assay can be described thus: acoustical startle reflex, pre-impulse inhibition in offspring of rats with hyperhomocysteinemia. The class given is in vivo, rat. The following applies: pups day 45. An excerpt: FIG. 13 is a graphic representation showing the inhibition of startle reaction to loud stimulus by pre-impulse in rats, where the histogram bars indicate the mean level of startle reaction after pre-stimulus as % to that of control group of rats (without hyperhomocisteinemia). l-m corresponds to group of rats treated with high L-methionine diet, and skq+lm corresponds to group of rats treated with high L-methionine diet and SkQ1.
FIG. 14 is a graphic representation showing habituation of rats to double acoustic stimulus in normal conditions, under hyperhomocisteinemia and under hyperhomocisteinemia treated with SkQ1, where motor reaction to the double stimulus and P values for different pairs of groups is indicated.
An experiment was performed on 161 female Wistar rats (n=12) with body weight 200 g-250 g and their offspring (n=149) from 0 to 1.5 months old. All animals were SPF-category and were housed under the standard conditions according to GLP-regulations (controlled microbiological conditions, light-dark cycle 12/12 hours, ventilation rate 10-12 V/h, room temperature 22+2° C., with maximum change 1° C. per day, humidity 30-70%). Rats were housed in individual cages with free access to food and water.
Each female rat was held with 3 male rats for one night. First day of the pregnancy was considered to be the day when spermatozoon were found in a vaginal smear. […]

The test system of assay [5] is Wistar rats. The settings on record: open field test; cited from earlier work.
Setting [6] is: 250 nmol/kg daily in food for 10 weeks.

For the molecule `CC1=C(C)C(=O)C(CCCCCCCCCC[P+](c2ccccc2)(c2ccccc2)c2ccccc2)=CC1=O` [SkQ1, plastoquinonyl decyltriphenyl-phosphonium], in the assay with Wistar rats [1], the “looking out from closed arms” value was “increased” and the “number of risk behavior” value is given as “increased”. Further, the “age effect in elevated plus maze” value in the assay on Wistar rats [2] (250 nmol/kg body weight daily in food for 10 weeks) was “completely reversed”. In addition, in the assay on Wistar rats [2] (setting [6]), the “probability of entering an open arm” value was “as high as for young rats” and the “time spent in open arm” value is reported as “almost as long as for the young rodents”. Besides, the immobilization time result in assay [3] is given as “less”. The “parameters of pre-impulse inhibition of the progeny” value with Wistar rats [4] (SkQ1 250 nM/kg orally to mother rats once per 2 d during lactation) is “normalized”. For the same molecule, the “non stable and very high reflex reaction on sound stimuli (effect of hyperhomocisteinemia)” value in the assay with Wistar rats [4] (SkQ1-treated group) is “significantly reduced”. In addition, in the assay on Wistar rats [5], the “difference in number of squares crossed between 14-month-old and 3-month-old rats” value is given as “abolished”.

Source of the values: patent US20140329776A1, “Mitochondria-Targeted Antioxidants for Treatment of Age-Related Brain Disorders” (MITOTECH S.A., priority 2011, published 2014).
